Active and inactive are the calls of the source. The calls are words filed in the database; no cut-off is given here.
Columns and labels:
N2a [1] = assay: Neuroprotective activity against amyloid beta-induced neurotoxicity in mouse N2A cells after 24 hrs by MTS assay; type: functional, cell-based
[2] = Inhibition of amyloid beta (1-42) fibril formation after 24 hrs by thioflavin T fluorescence method
N2a [3] = assay: Neurotoxicity against mouse N2A cells after 24 hrs by MTS assay; type: toxicity, cell-based
[4] = Inhibition of amyloid beta (1-42) self-aggregation after 24 hrs by sedimentation assay with ELISA
[5] = Inhibition of amyloid beta (1-42) self-aggregation at 4uM after 24 hrs by sedimentation assay with ELISA

Compound	Activity (N2a [1])	Activity [2]	Activity (N2a [3])	IC50 [4] [nM]	inhibition [5] [%]
COC(=O)C[C@](O)(CCC(C)(C)O)C(=O)O[C@@H]1C(OC)=C[C@]23CCCN2CCc2cc4c(cc2[C@H]13)OCO4 [HARRINGTONINE]	inactive	inactive	Non-toxic	–	–
CNc1ccc(C(=O)NC(CCCCNC(=O)OCc2ccccc2)C(=O)O)cc1 (centres undefined)	–	–	Non-toxic	2750	80
O=C(Cc1ccccc1)NC(CSSCC(NC(=O)Cc1ccccc1)C(=O)O)C(=O)O (centres undefined)	–	–	Non-toxic	1950	80

Source: ChEMBL document CHEMBL1155258, “Computational selection of inhibitors of Abeta aggregation and neuronal toxicity” (Bioorg Med Chem, 2009)
